Common to all, as to assay: relative viability (nuclei count vs DMSO), 5 days (fraction); higher = more cells survive
Compound in assay [1]: C[C@H]([C@@H](C(=O)N)NC(=O)[C@@H]1CSSC[C@@H](C(=O)N[C@H](C(=O)N[C@@H](C(=O)N[C@H](C(=O)N1)CCCCN)CC2=CNC3=CC=CC=C32)CC4=CC=C(C=C4)O)NC(=O)[C@@H](CC5=CC=CC=C5)N)O [CAP-232] + COc1cc2c(Oc3ccc(NC(=O)C4(C(=O)Nc5ccc(F)cc5)CC4)cc3F)ccnc2cc1OCCCN1CCOCC1 [Foretinib] (partner 0.25 µM)
In short, it runs like this:
(§1)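 The day after seeding in 1536-well plates, lung cancer cell lines were treated by pin tool with a single drug, or with a fixed anchor-drug dose together with five library-drug doses (not always all listed) in √10 steps. After 5 days, a combined fix-and-stain solution (final 0.05% Triton X-100, 1% formaldehyde, 1 ug/ml Hoechst) was added. Nuclei counted on 4× images gave relative viability as treated counts over vehicle counts, reported as the median of duplicate plates.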

Compound in assay [2]: C[C@H]([C@@H](C(=O)N)NC(=O)[C@@H]1CSSC[C@@H](C(=O)N[C@H](C(=O)N[C@@H](C(=O)N[C@H](C(=O)N1)CCCCN)CC2=CNC3=CC=CC=C32)CC4=CC=C(C=C4)O)NC(=O)[C@@H](CC5=CC=CC=C5)N)O [CAP-232] + CC(=O)Nc1cccc(-n2c(=O)n(C3CC3)c(=O)c3c(Nc4ccc(I)cc4F)n(C)c(=O)c(C)c32)c1 [Trametinib] (partner 0.02 µM)
The method in brief: as §1

Compound in assay [3]: C[C@H]([C@@H](C(=O)N)NC(=O)[C@@H]1CSSC[C@@H](C(=O)N[C@H](C(=O)N[C@@H](C(=O)N[C@H](C(=O)N1)CCCCN)CC2=CNC3=CC=CC=C32)CC4=CC=C(C=C4)O)NC(=O)[C@@H](CC5=CC=CC=C5)N)O [CAP-232] + CC1(C)CCC(c2ccc(Cl)cc2)=C(CN2CCN(c3ccc(C(=O)NS(=O)(=O)c4ccc(N[C@H](CCN5CCOCC5)CSc5ccccc5)c(S(=O)(=O)C(F)(F)F)c4)cc3)CC2)C1 [Navitoclax] (partner 0.5 µM)
The method in brief: as §1

Compound in assay [4]: C[C@H]([C@@H](C(=O)N)NC(=O)[C@@H]1CSSC[C@@H](C(=O)N[C@H](C(=O)N[C@@H](C(=O)N[C@H](C(=O)N1)CCCCN)CC2=CNC3=CC=CC=C32)CC4=CC=C(C=C4)O)NC(=O)[C@@H](CC5=CC=CC=C5)N)O [CAP-232] + CS(=O)(=O)CCNCc1ccc(-c2ccc3ncnc(Nc4ccc(OCc5cccc(F)c5)c(Cl)c4)c3c2)o1 [Lapatinib] (partner 2 µM)
The method in brief:
as §1

Compound in assay [5]: C[C@H]([C@@H](C(=O)N)NC(=O)[C@@H]1CSSC[C@@H](C(=O)N[C@H](C(=O)N[C@@H](C(=O)N[C@H](C(=O)N1)CCCCN)CC2=CNC3=CC=CC=C32)CC4=CC=C(C=C4)O)NC(=O)[C@@H](CC5=CC=CC=C5)N)O [CAP-232] + Cc1nc(Nc2ncc(C(=O)Nc3c(C)cccc3Cl)s2)cc(N2CCN(CCO)CC2)n1 [Dasatinib] (partner 0.075 µM)
In short, it runs like this: as §1

As for LC-2-ad, the relative viability in assay [1] (first compound 0.4 µM) came to 0.875; in assay [1] (first compound 1.265 µM) it was 0.878; in assay [1] (first compound 4 µM), 0.894; in assay [1] (first compound 12.65 µM), 0.524; in assay [2] (first compound 0.4 µM), 0.967; in assay [2] (first compound 1.265 µM), 0.925. Moreover, the relative viability in assay [2] (first compound 4 µM) came to 0.936; in assay [2] (first compound 12.65 µM), 0.884; in assay [3] (first compound 0.4 µM) it was 0.428; in assay [3] (first compound 1.265 µM) it was 0.363; in assay [3] (first compound 4 µM), 0.497; in assay [3] (first compound 12.65 µM), 0.33. The relative viability in assay [4] (first compound 0.4 µM) stood at 1.07; in assay [4] (first compound 1.265 µM), 0.891; in assay [4] (first compound 4 µM) it was 0.949; in assay [4] (first compound 12.65 µM) it was 1.09; in assay [5] (first compound 0.4 µM) it was 0.907; in assay [5] (first compound 1.265 µM) it was 0.525. Further, the results for the relative viability in assay [5] (first compound 4 µM) and in assay [5] (first compound 12.65 µM) were 0.547 and 0.26, respectively.
With LCLC-97TM1, the relative viability came out at 0.879 in assay [1] (first compound 0.4 µM); 0.9 in assay [1] (first compound 1.265 µM); 1.01 in assay [1] (first compound 4 µM); 0.925 in assay [1] (first compound 12.65 µM); 0.143 in assay [2] (first compound 0.4 µM); 0.184 in assay [2] (first compound 1.265 µM). In addition, the relative viability was 0.154 in assay [2] (first compound 4 µM); 0.188 in assay [2] (first compound 12.65 µM); 0.408 in assay [3] (first compound 0.4 µM); 0.294 in assay [3] (first compound 1.265 µM); 0.397 in assay [3] (first compound 4 µM); 0.366 in assay [3] (first compound 12.65 µM). Besides, the relative viability in assay [4] (first compound 0.4 µM) was determined as 1.13; in assay [4] (first compound 1.265 µM), 1.15; in assay [4] (first compound 4 µM) it was 1.05; in assay [4] (first compound 12.65 µM), 0.946; in assay [5] (first compound 0.4 µM), 0.896; in assay [5] (first compound 1.265 µM), 0.889. The relative viability in assay [5] (first compound 4 µM) was determined as 0.82; in assay [5] (first compound 12.65 µM) it was 0.851.
With LK-2, the relative viability came to 1.4 in assay [1] (first compound 0.4 µM); 1.22 in assay [1] (first compound 1.265 µM); 1.54 in assay [1] (first compound 4 µM); 1.19 in assay [1] (first compound 12.65 µM); 0.438 in assay [2] (first compound 0.4 µM); 0.687 in assay [2] (first compound 1.265 µM). Further, the relative viability in assay [2] (first compound 4 µM) came to 0.711; in assay [2] (first compound 12.65 µM) it was 0.563; in assay [3] (first compound 0.4 µM), 0.733; in assay [3] (first compound 1.265 µM), 0.791; in assay [3] (first compound 4 µM), 1.01; in assay [3] (first compound 12.65 µM) it was 0.622. For the same cell line, the relative viability in assay [4] (first compound 0.4 µM) is 0.942; in assay [4] (first compound 1.265 µM) it was 1.06; in assay [4] (first compound 4 µM), 0.808; in assay [4] (first compound 12.65 µM) it was 0.759; in assay [5] (first compound 0.4 µM) it was 0.295; in assay [5] (first compound 1.265 µM), 0.133. Also, the relative viability in assay [5] (first compound 4 µM) turned out to be 0.202; in assay [5] (first compound 12.65 µM), 0.201.
For the cell line LOU-NH91, the relative viability stood at 0.994 in assay [1] (first compound 0.4 µM); 0.903 in assay [1] (first compound 1.265 µM); 0.86 in assay [1] (first compound 4 µM); 0.919 in assay [1] (first compound 12.65 µM); 0.834 in assay [2] (first compound 0.4 µM); 0.811 in assay [2] (first compound 1.265 µM). The relative viability in assay [2] (first compound 4 µM) was determined as 0.783; in assay [2] (first compound 12.65 µM) it was 0.445; in assay [3] (first compound 0.4 µM), 0.729; in assay [3] (first compound 1.265 µM), 0.734; in assay [3] (first compound 4 µM), 0.665; in assay [3] (first compound 12.65 µM), 0.437. Further, the relative viability was 0.781 in assay [4] (first compound 0.4 µM); 0.771 in assay [4] (first compound 1.265 µM); 0.821 in assay [4] (first compound 4 µM); 0.639 in assay [4] (first compound 12.65 µM); 0.593 in assay [5] (first compound 0.4 µM); 0.548 in assay [5] (first compound 1.265 µM). The relative viability in assay [5] (first compound 4 µM) stood at 0.618; in assay [5] (first compound 12.65 µM), 0.437.
As to LU99A, the relative viability was found to be 0.811 in assay [1] (first compound 0.4 µM); 0.787 in assay [1] (first compound 1.265 µM); 0.977 in assay [1] (first compound 4 µM); 0.736 in assay [1] (first compound 12.65 µM); 0.283 in assay [2] (first compound 0.4 µM); 0.634 in assay [2] (first compound 1.265 µM). Further, the relative viability in assay [2] (first compound 4 µM) was found to be 0.553; in assay [2] (first compound 12.65 µM) it was 0.444; in assay [3] (first compound 0.4 µM), 1.03; in assay [3] (first compound 1.265 µM), 0.818; in assay [3] (first compound 4 µM) it was 0.864; in assay [3] (first compound 12.65 µM), 0.78. Besides, the relative viability is 0.964 in assay [4] (first compound 0.4 µM); 1.03 in assay [4] (first compound 1.265 µM); 1.13 in assay [4] (first compound 4 µM); 1.05 in assay [4] (first compound 12.65 µM); 0.769 in assay [5] (first compound 0.4 µM); 0.493 in assay [5] (first compound 1.265 µM). The relative viability is 0.675 in assay [5] (first compound 4 µM) and 0.492 in assay [5] (first compound 12.65 µM).
For the cell line LXF-289, the relative viability in assay [1] (first compound 0.4 µM) turned out to be 0.985; in assay [1] (first compound 1.265 µM) it was 0.965; in assay [1] (first compound 4 µM), 1.01; in assay [1] (first compound 12.65 µM), 0.995; in assay [2] (first compound 0.4 µM) it was 0.657; in assay [2] (first compound 1.265 µM), 0.687. In addition, the relative viability in assay [2] (first compound 4 µM) stood at 0.657; in assay [2] (first compound 12.65 µM), 0.713; in assay [3] (first compound 0.4 µM), 0.998; in assay [3] (first compound 1.265 µM) it was 0.956; in assay [3] (first compound 4 µM), 0.964; in assay [3] (first compound 12.65 µM), 0.959. Besides, the relative viability in assay [4] (first compound 0.4 µM) worked out at 0.952; in assay [4] (first compound 1.265 µM), 0.903; in assay [4] (first compound 4 µM) it was 0.914; in assay [4] (first compound 12.65 µM) it was 0.953; in assay [5] (first compound 0.4 µM) it was 0.224; in assay [5] (first compound 1.265 µM) it was 0.194. Further, the relative viability came to 0.238 in assay [5] (first compound 4 µM) and 0.21 in assay [5] (first compound 12.65 µM).
For the cell line NCI-H23, the relative viability in assay [1] (first compound 0.4 µM) worked out at 0.926; in assay [1] (first compound 1.265 µM), 0.883; in assay [1] (first compound 4 µM) it was 0.718; in assay [1] (first compound 12.65 µM), 0.802; in assay [2] (first compound 0.4 µM) it was 0.339; in assay [2] (first compound 1.265 µM), 0.435. The relative viability in assay [2] (first compound 4 µM) came out at 0.439; in assay [2] (first compound 12.65 µM), 0.28; in assay [3] (first compound 0.4 µM), 0.806; in assay [3] (first compound 1.265 µM) it was 0.861; in assay [3] (first compound 4 µM), 0.982; in assay [3] (first compound 12.65 µM), 0.713. The relative viability in assay [4] (first compound 0.4 µM) is 0.949; in assay [4] (first compound 1.265 µM) it was 1.03; in assay [4] (first compound 4 µM) it was 1.07; in assay [4] (first compound 12.65 µM) it was 0.828; in assay [5] (first compound 0.4 µM), 0.714; in assay [5] (first compound 1.265 µM), 0.609. Further, the values for the relative viability in assay [5] (first compound 4 µM) and in assay [5] (first compound 12.65 µM) were 0.891 and 0.844, respectively.

The values are drawn from the supplement of paper PMC10307832.
